Activity calls are given as the source filed them.
How the values were obtained:
Assay type in all cases: functional
Staphylococcus aureus [1] = experiment: Antibacterial activity against Staphylococcus aureus at 25 ug/ml after 24 hrs by agar well diffusion method
Staphylococcus aureus [2] = experiment: Antibacterial activity against Staphylococcus aureus at 50 ug/ml after 24 hrs by agar well diffusion method
Staphylococcus aureus [3] = experiment: Antibacterial activity against Staphylococcus aureus at 75 ug/ml after 24 hrs by agar well diffusion method
Staphylococcus aureus [4] = experiment: Antibacterial activity against Staphylococcus aureus at 100 ug/ml after 24 hrs by agar well diffusion method; conditions: for zone of inhibition at 100 µg/mL: read-out: DIZ
Bacillus subtilis [5] = experiment: Antibacterial activity against Bacillus subtilis at 25 ug/ml after 24 hrs by agar well diffusion method
Bacillus subtilis [6] = experiment: Antibacterial activity against Bacillus subtilis at 50 ug/ml after 24 hrs by agar well diffusion method
Bacillus subtilis [7] = experiment: Antibacterial activity against Bacillus subtilis at 75 ug/ml after 24 hrs by agar well diffusion method
Bacillus subtilis [8] = experiment: Antibacterial activity against Bacillus subtilis at 100 ug/ml after 24 hrs by agar well diffusion method
Escherichia coli [9] = experiment: Antibacterial activity against Escherichia coli at 25 ug/ml after 24 hrs by agar well diffusion method; conditions: for zone of inhibition at 25 µg/mL: read-out: DIZ
Escherichia coli [10] = experiment: Antibacterial activity against Escherichia coli at 50 ug/ml after 24 hrs by agar well diffusion method; conditions: for zone of inhibition at 50 µg/mL: read-out: DIZ
Escherichia coli [11] = experiment: Antibacterial activity against Escherichia coli at 75 ug/ml after 24 hrs by agar well diffusion method; conditions: for zone of inhibition at 75 µg/mL: read-out: DIZ
Escherichia coli [12] = experiment: Antibacterial activity against Escherichia coli at 100 ug/ml after 24 hrs by agar well diffusion method; conditions: for zone of inhibition at 100 µg/mL: read-out: DIZ
Klebsiella pneumoniae [13] = experiment: Antibacterial activity against Klebsiella pneumoniae at 25 ug/ml after 24 hrs by agar well diffusion method
Klebsiella pneumoniae [14] = experiment: Antibacterial activity against Klebsiella pneumoniae at 50 ug/ml after 24 hrs by agar well diffusion method
Klebsiella pneumoniae [15] = experiment: Antibacterial activity against Klebsiella pneumoniae at 75 ug/ml after 24 hrs by agar well diffusion method
Klebsiella pneumoniae [16] = experiment: Antibacterial activity against Klebsiella pneumoniae at 100 ug/ml after 24 hrs by agar well diffusion method
Staphylococcus aureus [17] = experiment: Antibacterial activity against methicillin resistant Staphylococcus aureus MRSA090 at 25 ug/ml after 24 hrs by agar well diffusion method; conditions: for zone of inhibition at 25 µg/mL: MRSA090, 24 h, read-out: DIZ
Staphylococcus aureus [18] = experiment: Antibacterial activity against methicillin resistant Staphylococcus aureus MRSA090 at 50 ug/ml after 24 hrs by agar well diffusion method; conditions: for zone of inhibition at 50 µg/mL: MRSA090, 24 h, read-out: DIZ
Staphylococcus aureus [19] = experiment: Antibacterial activity against methicillin resistant Staphylococcus aureus MRSA090 at 75 ug/ml after 24 hrs by agar well diffusion method; conditions: for zone of inhibition at 75 µg/mL: MRSA090, 24 h, read-out: DIZ
Staphylococcus aureus [20] = experiment: Antibacterial activity against methicillin resistant Staphylococcus aureus MRSA090 at 100 ug/ml after 24 hrs by agar well diffusion method; conditions: for zone of inhibition at 100 µg/mL: MRSA090, 24 h, read-out: DIZ
Aspergillus niger [21] = experiment: Antifungal activity against Aspergillus niger at 25 ug/ml after 48 hrs by agar well diffusion method
Aspergillus niger [22] = experiment: Antifungal activity against Aspergillus niger at 50 ug/ml after 48 hrs by agar well diffusion method
Aspergillus niger [23] = experiment: Antifungal activity against Aspergillus niger at 75 ug/ml after 48 hrs by agar well diffusion method
Aspergillus niger [24] = experiment: Antifungal activity against Aspergillus niger at 100 ug/ml after 48 hrs by agar well diffusion method
Fusarium verticillioides [25] = experiment: Antifungal activity against Fusarium moniliforme at 25 ug/ml after 48 hrs by agar well diffusion method
Fusarium verticillioides [26] = experiment: Antifungal activity against Fusarium moniliforme at 50 ug/ml after 48 hrs by agar well diffusion method
Fusarium verticillioides [27] = experiment: Antifungal activity against Fusarium moniliforme at 75 ug/ml after 48 hrs by agar well diffusion method
Fusarium verticillioides [28] = experiment: Antifungal activity against Fusarium moniliforme at 100 ug/ml after 48 hrs by agar well diffusion method
Fusarium oxysporum [29] = experiment: Antifungal activity against Fusarium oxysporum at 25 ug/ml after 48 hrs by agar well diffusion method; conditions: for zone of inhibition at 25 µg/mL: read-out: DIZ
Fusarium oxysporum [30] = experiment: Antifungal activity against Fusarium oxysporum at 50 ug/ml after 48 hrs by agar well diffusion method; conditions: for zone of inhibition at 50 µg/mL: read-out: DIZ
Fusarium oxysporum [31] = experiment: Antifungal activity against Fusarium oxysporum at 75 ug/ml after 48 hrs by agar well diffusion method; conditions: for zone of inhibition at 75 µg/mL: read-out: DIZ
Fusarium oxysporum [32] = experiment: Antifungal activity against Fusarium oxysporum at 100 ug/ml after 48 hrs by agar well diffusion method; conditions: for zone of inhibition at 100 µg/mL: read-out: DIZ

Cc1cccc2nc(N/N=C/c3ccc([N+](=O)[O-])cc3)sc12
14 mm: zone of inhibition at 100 µg/mL (Staphylococcus aureus [4]) | zone of inhibition at 100 µg/mL (Escherichia coli [12]) | zone of inhibition at 75 µg/mL (Klebsiella pneumoniae [15]; read-out: DIZ) | zone of inhibition at 75 µg/mL (Fusarium oxysporum [31])
7 mm: zone of inhibition at 25 µg/mL (Staphylococcus aureus [1]; read-out: DIZ) | zone of inhibition at 25 µg/mL (Klebsiella pneumoniae [13]; read-out: DIZ) | zone of inhibition at 50 µg/mL (Staphylococcus aureus [18])
11 mm: zone of inhibition at 100 µg/mL (Bacillus subtilis [8]; read-out: DIZ) | zone of inhibition at 75 µg/mL (Escherichia coli [11]) | zone of inhibition at 50 µg/mL (Klebsiella pneumoniae [14]; read-out: DIZ)
12 mm: zone of inhibition at 75 µg/mL (Staphylococcus aureus [3]; read-out: DIZ)
inactive: diameter of the inhibition zone (DIZ) (Bacillus subtilis [5]) | diameter of the inhibition zone (DIZ) (Fusarium verticillioides [25]) | diameter of the inhibition zone (DIZ) (Fusarium verticillioides [26])
17 mm: zone of inhibition at 75 µg/mL (Aspergillus niger [23]; read-out: DIZ)
13 mm: zone of inhibition at 50 µg/mL (Aspergillus niger [22]; read-out: DIZ)
10 mm: zone of inhibition at 75 µg/mL (Staphylococcus aureus [19]) | zone of inhibition at 50 µg/mL (Fusarium oxysporum [30])
9 mm: zone of inhibition at 50 µg/mL (Staphylococcus aureus [2]; read-out: DIZ)
4 mm: zone of inhibition at 50 µg/mL (Bacillus subtilis [6]; read-out: DIZ) | zone of inhibition at 25 µg/mL (Escherichia coli [9]) | zone of inhibition at 75 µg/mL (Fusarium verticillioides [27]; read-out: DIZ)
21 mm: zone of inhibition at 100 µg/mL (Aspergillus niger [24]; read-out: DIZ) | zone of inhibition at 100 µg/mL (Fusarium oxysporum [32])
3 mm: zone of inhibition at 25 µg/mL (Staphylococcus aureus [17])
18 mm: zone of inhibition at 50 µg/mL (Escherichia coli [10])
16 mm: zone of inhibition at 100 µg/mL (Klebsiella pneumoniae [16]; read-out: DIZ) | zone of inhibition at 100 µg/mL (Staphylococcus aureus [20])
6 mm: zone of inhibition at 25 µg/mL (Aspergillus niger [21]; read-out: DIZ) | zone of inhibition at 25 µg/mL (Fusarium oxysporum [29])
8 mm: zone of inhibition at 75 µg/mL (Bacillus subtilis [7]; read-out: DIZ) | zone of inhibition at 100 µg/mL (Fusarium verticillioides [28]; read-out: DIZ)

CC/C=N/Nc1nc2cccc(C)c2s1
inactive: diameter of the inhibition zone (DIZ) (Staphylococcus aureus [1]) | diameter of the inhibition zone (DIZ) (Staphylococcus aureus [2]) | diameter of the inhibition zone (DIZ) (Staphylococcus aureus [3]) | diameter of the inhibition zone (DIZ) (Staphylococcus aureus [4]) | diameter of the inhibition zone (DIZ) (Bacillus subtilis [5]) | diameter of the inhibition zone (DIZ) (Bacillus subtilis [6]) | diameter of the inhibition zone (DIZ) (Bacillus subtilis [7]) | diameter of the inhibition zone (DIZ) (Bacillus subtilis [8]) | diameter of the inhibition zone (DIZ) (Escherichia coli [9]) | diameter of the inhibition zone (DIZ) (Escherichia coli [10]) | diameter of the inhibition zone (DIZ) (Escherichia coli [11]) | diameter of the inhibition zone (DIZ) (Escherichia coli [12]) | diameter of the inhibition zone (DIZ) (Klebsiella pneumoniae [13]) | diameter of the inhibition zone (DIZ) (Klebsiella pneumoniae [14]) | diameter of the inhibition zone (DIZ) (Klebsiella pneumoniae [15]) | diameter of the inhibition zone (DIZ) (Klebsiella pneumoniae [16]) | diameter of the inhibition zone (DIZ) (Staphylococcus aureus [17]) | diameter of the inhibition zone (DIZ) (Staphylococcus aureus [18]) | diameter of the inhibition zone (DIZ) (Staphylococcus aureus [19]) | diameter of the inhibition zone (DIZ) (Staphylococcus aureus [20]) | diameter of the inhibition zone (DIZ) (Aspergillus niger [21]) | diameter of the inhibition zone (DIZ) (Aspergillus niger [22]) | diameter of the inhibition zone (DIZ) (Aspergillus niger [23]) | diameter of the inhibition zone (DIZ) (Aspergillus niger [24]) | diameter of the inhibition zone (DIZ) (Fusarium verticillioides [25]) | diameter of the inhibition zone (DIZ) (Fusarium verticillioides [26]) | diameter of the inhibition zone (DIZ) (Fusarium verticillioides [27]) | diameter of the inhibition zone (DIZ) (Fusarium verticillioides [28]) | diameter of the inhibition zone (DIZ) (Fusarium oxysporum [29]) | diameter of the inhibition zone (DIZ) (Fusarium oxysporum [30]) | diameter of the inhibition zone (DIZ) (Fusarium oxysporum [31]) | diameter of the inhibition zone (DIZ) (Fusarium oxysporum [32])

Cc1ccc(/C=N/Nc2nc3cccc(C)c3s2)cc1
inactive: diameter of the inhibition zone (DIZ) (Staphylococcus aureus [1]) | diameter of the inhibition zone (DIZ) (Staphylococcus aureus [2]) | diameter of the inhibition zone (DIZ) (Staphylococcus aureus [3]) | diameter of the inhibition zone (DIZ) (Bacillus subtilis [5]) | diameter of the inhibition zone (DIZ) (Bacillus subtilis [6]) | diameter of the inhibition zone (DIZ) (Bacillus subtilis [7]) | diameter of the inhibition zone (DIZ) (Bacillus subtilis [8]) | diameter of the inhibition zone (DIZ) (Klebsiella pneumoniae [13]) | diameter of the inhibition zone (DIZ) (Klebsiella pneumoniae [14]) | diameter of the inhibition zone (DIZ) (Klebsiella pneumoniae [15]) | diameter of the inhibition zone (DIZ) (Klebsiella pneumoniae [16]) | diameter of the inhibition zone (DIZ) (Aspergillus niger [21]) | diameter of the inhibition zone (DIZ) (Aspergillus niger [22]) | diameter of the inhibition zone (DIZ) (Aspergillus niger [23]) | diameter of the inhibition zone (DIZ) (Aspergillus niger [24]) | diameter of the inhibition zone (DIZ) (Fusarium verticillioides [25]) | diameter of the inhibition zone (DIZ) (Fusarium verticillioides [26]) | diameter of the inhibition zone (DIZ) (Fusarium verticillioides [27]) | diameter of the inhibition zone (DIZ) (Fusarium verticillioides [28])
22 mm: zone of inhibition at 100 µg/mL (Escherichia coli [12])
7 mm: zone of inhibition at 25 µg/mL (Fusarium oxysporum [29])
6 mm: zone of inhibition at 25 µg/mL (Staphylococcus aureus [17])
14 mm: zone of inhibition at 50 µg/mL (Escherichia coli [10]) | zone of inhibition at 75 µg/mL (Staphylococcus aureus [19]) | zone of inhibition at 75 µg/mL (Fusarium oxysporum [31])
17 mm: zone of inhibition at 75 µg/mL (Escherichia coli [11]) | zone of inhibition at 100 µg/mL (Staphylococcus aureus [20]) | zone of inhibition at 100 µg/mL (Fusarium oxysporum [32])
10 mm: zone of inhibition at 100 µg/mL (Staphylococcus aureus [4]) | zone of inhibition at 25 µg/mL (Escherichia coli [9]) | zone of inhibition at 50 µg/mL (Staphylococcus aureus [18])
11 mm: zone of inhibition at 50 µg/mL (Fusarium oxysporum [30])

Source: ChEMBL document CHEMBL4020788, “Synthesis, SAR and molecular docking studies of benzo[d]thiazole-hydrazones as potential antibacterial and antifungal agents” (2017)
